Values quoted from earlier work as cited in patent US12527815B2, “Aqueous formulation including dissolved hydrogen gas and minerals and additives” (BEST PLANET SCIENCE LLC, priority 2023, dated 2026).

Settings: partial pressure of one atm

[HH] [hydrogen gas, hydrogen]
equilibrium concentration (saturation) of hydrogen gas in water: 1.57 mg/L
